3 compounds from ChEMBL document CHEMBL1159382, “New antimalarial bis-dehydroaporphine alkaloids from Polyalthia debilis” (J Nat Prod, 2003) can be followed below.

Values after ≈ are worked out from the molar mass of the structure shown.

For the assay, the system named is Plasmodium falciparum. In words: Antimalarial activity against multidrug-resistant Plasmodium falciparum K1 by [3H]hypoxanthine uptake. The class given is functional, organism-based.
The term IC50 denotes the concentration that gives 50% inhibition. In turn, `C[C@@H]1CC[C@H]2[C@@H](C)C(=O)O[C@@H]3O[C@@]4(C)CC[C@@H]1[C@]32OO4` [ARTEMISININ] yielded an IC50 of 0.001 µg/mL (≈ 0.00354 µM). Compound `COc1cccc2c1c(-c1c3c4c(cc5c(c4c4cccc(OC)c14)OCO5)CCN3)c1c3c(cc4c(c32)OCO4)CCN1` [BIDEBILINE C] showed an IC50 of 5.4 µg/mL (≈ 9.24 µM). Under `COc1ccc2c(-c3c4c5c(cc6c(c5c5cc(OC)ccc35)OCO6)CCN4)c3c4c(cc5c(c4c2c1)OCO5)CCN3` [BIDEBILINE D] stands 4.1 µg/mL (≈ 7.01 µM).
